In patent publication US20230413812A1, “SANITIZING COMPOSITIONS CONTAINING IONIC LIQUID” (CAGE BIO, INC., priority 2020, published 2023):

Assays:
Format in all cases: cell-based
[1] = system: Escherichia coli (E. coli); assay: Residual self-sanitizing activity on hard, non-porous glass surface per EPA Protocol 01-1A (manual wear cycles); settings: in CGB-D-100 disinfectant; lowest concentration tested
From the text: The purpose of this study is to test residual self-sanitizing activity of CGB-D-100 disinfectant per EPA protocol 01-1A, “Residual Self-Sanitizing Activity of Dried Chemical Residues on Hard, Non-Porous Surfaces.”
The scope of this study is to evaluate residual self-sanitizing activity of CGB-D-100 disinfectant with three different concentrations of CG-101, and to compare it to a marketed disinfectant (Microban® 24). Glass surface (microscope slides) will be used as a non-porous surface. Sterile saline solution will be used as a negative control and Microban® 24 will be used as the positive control. The method will simulate contact and touches by incorporating wear or wiping of the test surface as well as reinoculations of the test and control surfaces over 24 hours. The EPA protocol requires the use of an automated abrasion tester to simulate wear from wiping the surface. For the purposes of this protocol, abrasion or wear were be performed manually using cotton wipes.
First, the glass slides will be washed with a non-medical soap and water followed by cleaning with 70% alcohol and allowed to air dry. […]
Test product, negative control, and positive control will be applied to replicate test surfaces according to the product's Directions for Use or until surface is completely wet. […] The temperature and humidity in the lab will be recorded. […]

E. coli = assay: Self-sanitizing activity of CG-101 in water and aqueous Poloxamer 407 on a surface with dried inoculum, 5 min contact
Method: This study was conducted to test the residual self-sanitizing activity of samples containing 5% CG-101 in water, in 5% aqueous […], and in 10% aqueous Poloxamer 407. Parameters of the experiments are listed below:
• Water (Negative Control) • 5% CG-101 Aqueous Solution (Positive Control) • 5% CG-101 in 5% Poloxamer 407 Aqueous Solution • 5% CG-101 in 10% Poloxamer 407 Aqueous solution
• 10 μl of E. coli suspension was applied on the surface and dried over 30 min • 1 ml of each test sample and control was applied on the surface with a dry inoculum • Contact time of 5 min was used • Neutralization was performed immediately after the contact time • 100 μl from each solution was plated onto agar plates and transferred to incubator set at 37 C for 48 hr. • Bacterial growth was observed after 48 hr. In the incubator.

[2] = Antimicrobial efficacy time kill test (ASTM E2783-11, neutralization per E1054-08)
Method: The purpose of this study was to test antimicrobial efficacy of 1%, 3%, and 5% CG-101 disinfectant formulations.
The study was performed using the following standard protocols: • I. American Society for Testing and Materials. Standard Test Methods for Evaluation of
Inactivators of Antimicrobial Agents; Designation: E1054-08 (Reapproved 2013). West Conshohocken, PA. • II. American Society for Testing and Materials. Standard Test Method for Assessment of Antimicrobial Activity for Water Miscible Compounds Using a Time-Kill Procedure. Designation: E2783-11 (Reapproved 2016). West Conshohocken, PA.
Initial neutralization testing confirmed that the test material was adequately neutralized at all concentrations tested. The time kill procedure included triplicate testing and all plate counts were performed in duplicate
CG-101 was added to water to form mixtures of 1 wt %, 3 wt %, and 5 wt % of CG-101.

[3] = 1 wt % CG-101 in water, 1 minute
[4] = 1 wt % CG-101 in water, 5 minutes
[5] = 1 wt % CG-101 in water, at seconds
[6] = 3 wt % CG-101 in water, 1 minute
[7] = 3 wt % CG-101 in water, 5 minutes
[8] = 3 wt % CG-101 in water, at seconds
[9] = 5 wt % CG-101 in water, 1 minute
[10] = 5 wt % CG-101 in water, 5 minutes
[11] = 5 wt % CG-101 in water, at seconds

Choline geranate [CG-101]
concentration of CG-101 sufficient to kill all applied bacteria and to preserve the glass surface for 24 h [1]: 2% | bacterial growth on TSA plates (E. coli; 5% CG-101 in 5% aqueous Poloxamer 407, 48 hr incubation): No bacterial growth | bacterial growth on TSA plates (E. coli; 5% CG-101 in 10% aqueous Poloxamer 407, 48 hr incubation): No bacterial growth | bacterial growth on TSA plates (E. coli; 5% CG-101 in water (positive control of this study), 48 hr incubation): No bacterial growth | killing [2, 3]: 99.9% | log decrease in CFU [2, 3]: > 3 log | killing [2, 4]: 99.9% | log decrease in CFU [2, 4]: > 3 log | killing [2, 5]: 99.9% | log decrease in CFU [2, 5]: > 3 log | killing [2, 6]: 99.9% | log decrease in CFU [2, 6]: > 3 log | killing [2, 7]: 99.9% | log decrease in CFU [2, 7]: > 3 log | killing [2, 8]: 99.9% | log decrease in CFU [2, 8]: > 3 log | killing [2, 9]: 99.9% | log decrease in CFU [2, 9]: > 3 log | killing [2, 10]: 99.9% | log decrease in CFU [2, 10]: > 3 log | killing [2, 11]: 99.9% | log decrease in CFU [2, 11]: > 3 log
